Data on six molecules can be found in patent US7737253B2, “Human cancer stem cell culture compositions comprising Erbb2 variants and methods of use thereof” (BresaGen, Inc., priority 2006, dated 2010).

In one assay the target is Erbb2/3 heterodimers (Homo sapiens, UniProt P21860). The conditions noted are these: read-out: binding affinity; cited from earlier work.
Another assay deals with Erbb2/4 heterodimers (Homo sapiens, UniProt Q15303). Conditions: read-out: binding affinity; cited from earlier work.
In assay [1] the test system is Erbb2Δ16-expressing cells. Conditions: unlike wild type Erbb2-transfectants; cited from earlier work.
Another assay relates to BG01v cells. The assay is described as follows: Growth of BG01v cells in defined media with Erbb2 TK inhibitors. In kind it is cell-based, human. The conditions noted are these: absence of an exogenous Erbb2 activating growth factor. An excerpt:
This confirms that endogenous Erbb2 signaling is critical for the self-renewal of BG01v cells and represents a major difference between variant and normal hESCs.

For the next assay, the system named is hESCs. As to the kind of experiment: hESC proliferation and cell count after treatment with AG825. The class given is cell-based, human. Conditions: for cell count: average of triplicate counts. As to the method:
Based on the above studies described in Examples 13 and 14, further experiments were performed to quantify the number of hESCs and determine the level of inhibition of Erbb2 using AG825. […] Values reported were taken from an average of the triplicate (3) cell counts. The initial cell count was performed similarly. AG825 inhibited Erbb2 tyrosine kinase activity, thereby inhibiting cell signaling, and effectively reducing and inhibiting HESC proliferation and growth by about at least 1, 2 or 3 orders of magnitude.

In another assay the test system is ERBB2 (phospho-Y1248). The assay is described as follows: Western blot of ERBB2 phospho-Y1248 in BG01 hESCs. The conditions noted are these: BG01 hESCs starved overnight. The class given is cell-based, human. As to the method:
BG01 hESCs were grown in DC-HAIF and then in media minus or starved of growth factors overnight, washed and then pulsed with either with heregulin (HRG) or not, or incubated with AG825 or not.
All BG01 HESC cultures were first grown in defined conditioned-heregulin/Activin A/IGF1/FGF (DC-HAIF) and then in media starved of growth factors overnight e.g., no heregulin, Activin A, IGF1 and/or FGF. […]
Cell lysates were prepared as per RTK blotting, separated by 4-20% gradient SDS-PAGE, blotted and detected with an immunoaffinity purified anti-ERBB2 (phospho-Y1248) antibody (Upstate/Millipore Cat#06229). The Erbb2 phospho-Y1248 antibody was used to quantify tyrosine phosphorylation of Erbb2 resulting from the interaction of heregulin with Erbb3 and/or ErbB4. […]
For orientation: In western blotting, separated proteins are transferred to a membrane and probed.

For another assay, the target named is Erbb2 tyrosine kinase (Homo sapiens, UniProt P04626). Conditions: cited from earlier work.
The target of the next assay is T1, wild type Erbb2 (Homo sapiens, UniProt P04626).
T1 construct: host or cells: transfected human cells (Castiglioni et al., 2006)
Conditions: cited from earlier work.

Another assay has as its target T2, Erbb2Δ16 (Homo sapiens, UniProt P04626, DEL634-649).
T2 construct: host or cells: transfected human cells / Erbb2Δ16 transgene over-expression (Castiglioni et al., 2006)
Conditions: cited from earlier work.

The next assay concerns Erbb2. The assay is described as follows: Phospho-RTK antibody array, Erbb2 phosphorylation in BG01 and BG01v cells. In kind it is cell-based, human. Conditions: BG01 and BG01v cells starved overnight, then pulsed about 15 minutes with 10 ng/ml heregulin. The protocol:
(§1) (A) BG01 and BG01v cells were grown in defined condition-heregulin/Activin A/IGF-1/FGF (DC-HAIF) media. The hESCs were starved of growth factors overnight (“Starved”), or starved then pulsed with 10 ng/ml Heregulin (“HRG pulse”). Cell lysates were prepared and examined for phosphorylation of Erbb2 and Erbb3 by RTK blotting. (B) The spots were quantified, normalized against controls, and charted as normalized relative intensity. […] While at a lower overall intensity, a similar pattern was also observed in the starved conditions.
(§2) Cells were maintained in steady state conditions in defined conditioned-heregulin/Activin A/IGF1/FGF (DC-HAIF), were incubated in media minus or starved of growth factors (e.g., no heregulin/Activin A/IGF1/FGF) overnight, or starved and then pulsed about 15 minutes with 10 ng/ml heregulin. Proteome Profiler™ human phospho-RTK antibody arrays (R&D Systems, Cat#ARY001) were used according to the manufacturer's instructions. […] The arrayed antibodies capture the extracellular domains of both phosphorylated and unphosphorylated RTKs, and bound phospho-RTKs were detected with a pan anti-phospho-tyrosine antibody conjugated to horseradish peroxidase (HRP) using chemiluminescence. X-ray film was scanned and spots were quantified using NTH-image (world wide web at rsb.info.nih.gov/nih-image/). […]

For another assay, the target named is T3, Erbb3 (Homo sapiens, UniProt P21860).
T3 construct: endogenous in cells; host or cells: BG01 and BG01v human embryonic stem cells
The assay is described as follows: Phospho-RTK antibody array, Erbb3 phosphorylation in BG01 and BG01v cells. Conditions: BG01 and BG01v cells starved overnight, then pulsed about 15 minutes with 10 ng/ml heregulin. In kind it is cell-based. The protocol: as §1, §2

pKd: −log10 of the molar value. Entries after “also recorded” stand apart in the source; their conditions may differ.

Consider “HRG-β: neuregulin-β, EGF growth factor family member; cleaved ectodomain of neuregulin”, for which the pKd with Erbb2/3 heterodimers and with Erbb2/4 heterodimers was greater than 9.00 each time.
`COc1cc2ncnc(Nc3ccc(F)c(Cl)c3)c2cc1OCCCN1CCOCC1` [ZD1839]: in assay [1], the “sensitivity of Erbb2Δ16-expressing cells to the drug” value was “low sensitivity”.
On to `CC(C)(C)c1cc(/C=C(\C#N)C(N)=S)cc(C(C)(C)C)c1O` [AG879], for which the “growth of BG01v cells” value in the assay with BG01v cells is recorded as “inhibit the growth”.
For the molecule `COc1cc(/C=C(\C#N)C(N)=O)cc(CSc2nc3ccccc3s2)c1O` [AG825, Tyrphostin AG825], in the assay with hESCs, the “number of hESCs after treatment compared to DMSO and conditioned media (CM) control” value is “statistically significant decrease”. The cell count in the assay on hESCs (Experiment 1, initial cell count 560 × 10^3, CM 1.99 × 10^6, DMSO 2.13 × 10^6, P = 0.005) was 406.6 × 10^3; in the assay on hESCs (Experiment 2, initial cell count 853.3 × 10^3, CM 2.77 × 10^6, DMSO 2.54 × 10^6, P = 0.007), 433.3 × 10^3. Also, in the assay on hESCs (hESCs growing in CM), the “proliferation of hESCs” value is “significantly inhibited proliferation”. Moreover, the “growth of BG01v cells” value in the assay on BG01v cells is given as “inhibit the growth”. Besides, the “autophosphorylation of ERBB2 at Tyrosine-1248” value with ERBB2 (phospho-Y1248) (15 minute pulse, 50 μM AG825 without or with 10 ng/ml HRG1β (lanes 2 and 4)) was “inhibited autophosphorylation; also recorded: inhibition of ERBB2 Y1248 phosphorylation”. In addition, the “selectivity as inhibitor of the Erbb2 tyrosine kinase” value at Erbb2 tyrosine kinase is reported as “highly selective inhibitor”.
As to `Cc1cc(O)c2c(c1)C(=O)c1cc(O)cc(O)c1C2=O` [emodin], in the assay on BG01v cells, the “growth of BG01v cells” value is “inhibit the growth”. The “activation of wild type Erbb2 transfectants” value on wild type Erbb2 is recorded as “blocked activation”. Further, the “activation of Erbb2Δ16 transfectants” value at Erbb2Δ16 is recorded as “blocked activation”.
Take “HRG: Heregulin-β EGF domain (HRGβ, Peprotech), recombinant growth factor”: the “phosphorylation of ERBB2” value in the assay on Erbb2 is reported as “strong phosphorylation”. For the same molecule, the “phosphorylation of ERBB3” value with Erbb3 is “strong phosphorylation”. In addition, the “Erbb2 phosphorylation detected by phospho-Y1248 antibody” value in the assay on ERBB2 (phospho-Y1248) (15 minute pulse with 10 ng/ml HRG1β (lane 3) or DC-HAIF media (lane 5)) is “increased Erbb2 phosphorylation”.
